The target of one series is T1, human PTP1B (Homo sapiens, UniProt P18031).
T1 construct: purchased Sigma
T1 sequence (P18031 1-435): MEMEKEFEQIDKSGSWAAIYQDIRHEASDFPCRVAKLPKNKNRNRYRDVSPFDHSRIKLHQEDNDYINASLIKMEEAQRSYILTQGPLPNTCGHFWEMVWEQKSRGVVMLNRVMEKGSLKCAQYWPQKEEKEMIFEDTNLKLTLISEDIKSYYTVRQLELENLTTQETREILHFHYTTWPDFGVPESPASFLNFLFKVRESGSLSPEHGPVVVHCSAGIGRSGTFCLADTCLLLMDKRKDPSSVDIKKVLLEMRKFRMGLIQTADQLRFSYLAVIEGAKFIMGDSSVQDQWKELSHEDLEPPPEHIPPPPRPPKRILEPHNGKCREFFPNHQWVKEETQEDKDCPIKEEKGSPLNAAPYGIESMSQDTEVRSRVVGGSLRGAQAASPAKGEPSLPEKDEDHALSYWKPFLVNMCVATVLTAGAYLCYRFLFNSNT
Nature of the series: PTP1B inhibition assay (pNPP substrate, UV absorption). The format is biochemical. Particulars: for inhibition at 10 µM: PTP1B inhibition at 10 μM, performed in triplicate. As for the experimental part: The inhibitory assay was performed using human PTP1B (purchased from Sigma) and p-nitrophenylphosphate (pNPP) as substrate by UV absorption. 400 nmol pNPP were dissolved in H2O and 48 μL of the solution was added to a 100 μL reaction. The indicated amount of synthetic compounds was diluted in DMSO at a concentration of 5 mM. The PTP1B was diluted in pH 7.2 buffer contained 50 mM HEPES, 3 mM dithiothreitol, 2 mM EDTA and 100 mM NaCl. About 50 μL PTP1B dilution was added, and the mixture incubated at 37 °C for 30 min. 1N NaOH was added to terminate the reaction. UV–Vis absorption was detected at 410 nm using a Tecan Infinite M1000 plate reader.

Series [1] has as its system insulin-resistant HepG2 cells. Nature of the series: Glucose uptake / glucose consumption in insulin-resistant HepG2 cells. The format is cell-based, human. To be noted: HepG2 induced with 1.5 × 10^−5 mmol insulin for 36 h; compound 40 μM or rosiglitazone 10 μM for 24 h; glucose oxidase method. As for the experimental part: To assess the insulin sensitisation, the cellular effect of these compounds on insulin-resistant human hepatoma HepG2 cells was performed. The concentration of insulin and induction time were screened to induce insulin resistance in HepG2 cells according to the reported method[41]^,[42] with some modification. As shown in Figure 4(A), treatment with above 1 × 10^−5 mmol of insulin reduced glucose uptake, whereas treatment with 6 × 10^−6 mmol of insulin enhanced glucose uptake. […] As shown in Figure 4(B), insulin resistance was induced in HepG2 cells at 36 h, and rosiglitazone can decrease the insulin resistance. […]
Figure 4. […] After incubation, glucose content in the culture medium was measured by glucose oxidase method. […]
HepG2 cells were grown in DMEM with 10% foetal bovine serum, […] of streptomycin, and 100 U/mL of penicillin, in a humidified atmosphere of 5% CO2 at 37 °C. […] After cultivation, the glucose content was determined by the glucose oxidase method (the glucose analysis kit was purchased from Rongsheng Biopharmaceutical Co., Ltd., Shanghai, China). […] The absorbance was measured at 506 nm using a microplate reader (SpectraMax i3x, Molecular Devices). The residual glucose concentration is expressed as AX/A0 × 5.55 mmol/L (AX: OD value of sample; A0: OD value of glucose standard solution).

Another series relates to NIDDM mice. The format is in vivo. Particulars: for Antihyperglycaemic effect (plasma glucose): male Kunming mice, 100 mg/kg intraperitoneally, glucose at 0-4 h, n = 8. The method, then: The antihyperglycaemic effect of the compounds 15, 25 and C10a were evaluated on non-insulin dependent diabetes mellitus (NIDDM) mice. Nicotinamide and streptozotocin were administrated intraperitoneally to induce hyperglycaemia and the plasma glucose of mice raised over 4.5 mmol/L[45].
Figure 5. The antihyperglycaemic effect in NIDDM mice (n = 8). […] M group: NIDDM mice were treated with saline alone. Y group: NIDDM mice were treated with rosiglitazone.
During the experiment, the male Kunming mice with 25–30 g body weight were fasted but received water prior to induction of diabetes. 110 mg/kg of nicotinamide and 65 mg/kg of streptozotocin (Macklin in Biochemical Technology Co., Ltd., Shanghai, China) were dissolved in pH 4.5 citrate buffer and intraperitoneally administrated to induce NIDDM mice model. The mice were intraperitoneally administered with a compound or rosiglitazone (100 mg/kg) dissolved in saline containing 1% DMSO and 10% Tween 80. Hyperglycaemia was confirmed by a plasma glucose increase of more than 4.5 mmol/L measured by a blood glucose metre (Sinocare GA-3, Changsha, China). Glucose concentrations from the tail of the mice were measured at 0, 0.5, 1, 2, 3 and 4 h by the blood glucose metre. Calculate the percentage of blood glucose by using the following formula: variation of glycaemia% = (AX − A0)/A0 × 100% (AX: blood glucose at selected time; A0: initial blood glucose).

In the next series the test system is HepG2 cells. Nature of the series: Cell viability in the MTT assay. Particulars: 40 μM compound, 24 h. The format is cell-based, human. The method, then:
Cell viability in the MTT assay
The toxicities of the compounds were evaluated by (3-(4, 5-dimethylthiazolyl-2)-2, 5-diphenyltetrazolium bromide) test. HepG2 cells were routinely grown in Dulbecco's Modified Eagle Medium (DMEM) supplemented with 10% (v/v) fetal bovine serum, streptomycin ([…]), and penicillin (100U/mL), in a humidified atmosphere of 95% air, 5% CO2 at 37°C. HepG2 cells were planked in a 96 well plate with a concentration of 1×10^4 cells/well and cultured in 37°C and 5%CO2 for 24 h. Then HepG2 cells were treated with 40 μM of the synthetic compound. HepG2 cells untreated were used as control. HepG2 cells were cultured in 37℃ and 5%CO2 for 24 h, the old medium was carefully removed and were cultured for another 4 h in MTT (0.5%) containing DMEM, then the medium was carefully removed. 150 µL/well dimethyl sulfoxide was added and oscillated gently to make crystal dissolved. The absorbance at 560 nm was measured using a microplate reader. The cell […]
Fig. S1. Cell viability in the MTT assay.
(1 picture or pasted object on this page, not shown here)

The test system of the next series is PTP1B. Details: method as in PMID 20964318. Particulars: cited from earlier work.

SMILES strings stand for the structures.

`CC(C)(O)c1ccc2c(c1)CCC1[C@](C)(CO)CCC[C@]21C` (stereo partly drawn) [Compound 5, 1-Hydroxylmethyl-15-hydroxydehydroabietate]: on human PTP1B, 10 µM produced 0% inhibition.

On to `CN(CCOc1ccc(CC2SC(=O)NC2=O)cc1)c1ccccn1` (stereo not drawn) [rosiglitazone], for which the “Effect on glucose consumption / insulin-stimulated glucose uptake” value in series [1] was “significantly decrease the insulin resistance and improve the glucose uptake”. In addition, in the series with NIDDM mice, the “Antihyperglycaemic effect (plasma glucose)” value is recorded as “significant antihyperglycaemic effect after 1 h”. `C[C@@]1(C(=O)O)CCC[C@]2(C)c3ccc(O)cc3CCC12` (stereo partly drawn) [Compound 7, 13-hydroxy-8,11,13-podocarpatriene-1-carboxylic acid]: the melting point lay within 101 to 102 °C. On human PTP1B, the inhibition at 10 µM came to 1%.

Turning to `CC(C)C1=CC2=CC[C@@H]3[C@](C)(CCC[C@@]3(C)C(=O)O)[C@H]2CC1` [Compound 1, abietic acid], at 10 µM the inhibition on human PTP1B was 35%. The same measure, in the same setting: then `CC(C)(O)c1ccc2c(c1)CCC1C(C)(C)CCCC21C` (stereo not drawn) [Compound 13, 15-Hydroxydehydroabietane], with 22%.

Consider `CC(C)C1=CC2=CCC3C(C)(C)CCCC3(C)C2CC1` (stereo not drawn) [Compound 11], for which the inhibition at 10 µM on human PTP1B turned out to be 0%. The compound `CC(C)(O)c1ccc2c(c1)CC[C@H]1[C@](C)(C(=O)O)CCC[C@]21C` [Compound 3, 15-Hydroxydehydroabieta-18-oic acid] came in with a melting point of 92 to 93 °C. The compound also registered an inhibition at 10 µM against human PTP1B of 19%. `C[C@@]1(C(=O)O)CCC[C@]2(C)c3ccc(OCCOC(=O)c4ccccc4C(=O)O)cc3CCC12` (stereo partly drawn) [Compound 15] came in with a melting point of 72 to 73 °C.

As for `C[C@@]1(C(=O)O)CCC[C@]2(C)c3ccc(OCCOC(=O)c4ccc5cc(C(=O)O)ccc5c4)cc3CCC12` (stereo partly drawn) [Compound 34], the melting point was 189 to 190 °C. On the same count and under the same terms, then `C[C@@]1(C(=O)O)CCC[C@]2(C)c3ccc(OCCOC(=O)c4ccccc4)cc3CCC12` (stereo partly drawn) [Compound 25], with 138 to 139 °C.

On to `CC1(C)CCC2(COC(=O)c3ccccc3C(=O)O)CCC3(C)C(=CCC4C5(C)CCC(=O)C(C)(C)C5CCC43C)C2C1` (stereo not drawn) [Compound C10a], for which the IC50 at human PTP1B (values from the text, quantity type not printed there (Table 2 is an image), read-out: PTP1B enzymatic inhibitory activities) is 3.1 µM; in the series with PTP1B (previous work, read-out: PTP1B inhibition IC50) it was 3.12 µM. The Cytotoxicity entry in the series with HepG2 cells was “considerable cytotoxicity and High”. For the same compound, in the series with NIDDM mice, the “Antihyperglycaemic effect (plasma glucose)” value is listed as “showed the antihyperglycaemic effect”. Further, in the series on NIDDM mice (mouse, in vivo, ip), the “Acute toxicity observations in treated mice” value was “hydroabdomen, thrombus and tail necrosis”. Also, in the series with PTP1B (versus OA), the “PTP1B inhibition, fold more than the parent compound OA” value was 7.6 fold. In the case of `Cc1ccc(S(=O)(=O)OCC2(C)CCCC3(C)C4CCC(C(C)C)=CC4=CCC23)cc1` (stereo not drawn) [Compound 10], the melting point fell in the range of 67 to 68 °C. The compound further registered an inhibition at 10 µM on human PTP1B of 2%. As for `CC(C)C1=CC2=CCC3C(C)(CO)CCCC3(C)C2CC1` (stereo not drawn) [Compound 9], the inhibition at 10 µM against human PTP1B was 3%.

Take `CC1(C)CCCC2(C)c3ccc(O)cc3CCC12` (stereo not drawn) [Compound 14, 13-Hydroxy-8,11,13-podocarpatriene]: the melting point lay in the range of 145 to 146 °C. Also, the inhibition at 10 µM on human PTP1B amounted to 15%.

In turn, `CCOC(=O)[C@]1(C)CCC[C@]2(C)c3ccc(C(C)(C)O)cc3CCC12` (stereo partly drawn) [Compound 4a, Ethyl 15-hydroxydehydroabietate] returned a melting point of 51 to 52 °C. The compound also returned an inhibition at 10 µM on human PTP1B of 4%.

In turn, `C[C@@]1(C(=O)O)CCC[C@]2(C)c3ccc(OCCOC(=O)c4ccccc4N)cc3CCC12` (stereo partly drawn) [Compound 28] gave a melting point of 126 to 127 °C.

The values above are taken from PMC6882489, “Design and synthesis of tricyclic terpenoid derivatives as novel PTP1B inhibitors with improved pharmacological property and in vivo antihyperglycaemic efficacy” (Journal of Enzyme Inhibition and Medicinal Chemistry, 2019).
